According to patent US20080194556A1, “Quinazolines and Their Use as Aurora Kinase Inhibitors” (ASTRAZENECA AB, priority 2005, published 2008):

What was measured:
[1] = tested on: drug-resistant MCF7-ADR human breast tumour cells; assay: In vitro drug-resistant cell phenotype and substrate phosphorylation assay (phosphohistone H3 levels); type: cell-based; conditions: NCI/ADR-RES, 24 hours of treatment, read-out: IC50 (inhibition of phosphohistone H3 levels)
Procedure: (d) In Vitro Drug-Resistant Cell Phenotype and Substrate Phosphorylation Assay.
This assay is used to determine the cellular effects of compounds on drug-resistant MCF7-ADR human breast tumour cells in vitro.
Compounds typically cause inhibition of levels of phosphohistoneH3 and an increase in the nuclear area of treated cells.
0.8×10^4 MCF7-ADR cells per well were plated in 100 μl DMEM media (containing 10% FCS (foetal calf serum) and 1% glutamine) in costar 96 well plates and left overnight at 37° C. and 5% CO2 to adhere.
All other procedures are identical to those for the above assay using SW620 cells.
The compounds of the invention generally have EC50 values for inhibition of phosphohistone H3 levels of 0.5 nM to 0.1 μM.

[2] = tested on: SW620 human colon tumour cells; assay: In vitro cell phenotype and substrate phosphorylation assay (phosphohistone H3 levels); type: cell-based; conditions: SW-620, 24 hours of treatment, read-out: IC50 (inhibition of phosphohistone H3 levels)
Procedure: (c) In Vitro Cell Phenotype and Substrate Phosphorylation Assay
This assay is used to determine the cellular effects of compounds on SW620 human colon tumour cells in vitro. Compounds typically cause inhibition of levels of phosphohistone H3 and an increase in the nuclear area of the cells.
10^4 SW620 cells per well were plated in 100 μl DMEM media (containing 10% FCS and 1% glutamine) (DMEM is Dulbecco's Modified Eagle's Medium (Sigma D6546)) in costar 96 well plates and left overnight at 37° C. and 5% CO2 to adhere. The cells were then dosed with compound diluted in media (50 μl is added to each well to give 0.00015μ-1 μM concentrations of compound) and after 24 hours of treatment with compound, the cells were fixed.
The cells were first examined using a light microscope and any cellular changes in morphology were noted. 100 μl of 3.7% formaldehyde was then added to each well, and the plate was left for at least 30 minutes at room temperature. Decanting and tapping the plate on a paper towel removed the fixative and plates were then washed once in PBS (Dulbecco's Phosphate Buffered Saline (Sigma D8537)) using an automated plate washer. 100 μl PBS and 0.5% triton X-100 was added and the plates were put on a shaker for 5 minutes. The plates were washed in 100 μl PBS and solution tipped off. 50 μl of primary antibody, 1:500 rabbit anti-phosphohistone H3 in PBS 1% BSA (bovine serum albumin) and 0.5% tween, was added. Anti-phosphohistone H3 rabbit polyclonal 06-750 was purchased from Upstate Biotechnology. The plates were left 1 hour at room temperature on a shaker.
The next day, the antibody was tipped off and the plates were washed twice with PBS. In an unlit area, 50 μl of secondary antibody, 1:10,000 Hoechst and 1:200 Alexa Fluor 488 goat anti rabbit IgGA (cat no. 11008 molecular probes) in PBS 1% BSA, 0.5% tween was added. The plates were wrapped in tin foil and shaken for 1 hour at room temperature. The antibody was tipped off and plates were washed twice with PBS. […] 100 μl PBS was added to each well and the plates were sealed ready to analyse. […]

aurora B-INCENP enzyme = molecular target: T1, aurora B-INCENP enzyme (Homo sapiens, UniProt Q96GD4); assay: In vitro aurora B kinase inhibition test; type: biochemical; conditions: 33P incorporation into peptide substrate, 60 minutes at room temperature, read-out: IC50 (50% inhibition of enzyme activity), aurora B kinase
T1 construct: 6-histidine; purchased Upstate
From the text: (b) In Vitro Aurora B Kinase Inhibition Test
This assay determines the ability of a test compound to inhibit serine-threonine kinase activity. DNA encoding aurora B may be obtained by total gene synthesis or by cloning. This DNA may then be expressed in a suitable expression system to obtain polypeptide with serine-threonine kinase activity. In the case of aurora B, the coding sequence was isolated from cDNA by polymerase chain reaction (PCR) and cloned into the pFastBac system in a manner similar to that described above for aurora A (i.e. to direct expression of a 6-histidine tagged aurora B protein).
For the large scale expression of aurora B kinase activity, Sf21 insect cells were grown at 28° C. in TC100 medium supplemented with 10% foetal calf serum (Viralex) and 0.2% F68 Pluronic (Sigma) on a Wheaton roller rig at 3 r.p.m. When the cell density reached 1.2×10^6 cells ml^−1 they were infected with plaque-pure aurora B recombinant virus at a multiplicity of infection of 1 and harvested 48 hours later. All subsequent purification steps were performed at 4° C. Frozen insect cell pellets containing a total of 2.0×10^8 cells were thawed and diluted with lysis buffer (50 mM HEPES (N-[2-hydroxyethyl]piperazine-N′-[2-ethanesulphonic acid]) pH7.5 at 4° C., 1 mM Na3VO4, 1 mM PMSF (phenylmethylsulphonyl fluoride), 1 mM dithiothreitol, 1 μg/ml aprotinin, 1 μg/ml pepstatin, 1 μg/ml leupeptin), using 1.0 ml per 2×10^7 cells. Lysis was achieved using a sonication homogeniser, following which the lysate was centrifuged at 41,000 g for 35 minutes. Aspirated supernatant was pumped onto a 5 mm diameter chromatography column containing 1.0 ml CM sepharose Fast Flow (Amersham Pharmacia Biotech) which had been equilibrated in lysis buffer. A baseline level of UV absorbance for the eluent was reached after washing the column with 12 ml of lysis buffer followed by 7 ml of wash buffer (50 mM HEPES pH7.4 at 4° C., 1 mM dithiothreitol). […]

T1 sequence (Q96GD4 whole entry): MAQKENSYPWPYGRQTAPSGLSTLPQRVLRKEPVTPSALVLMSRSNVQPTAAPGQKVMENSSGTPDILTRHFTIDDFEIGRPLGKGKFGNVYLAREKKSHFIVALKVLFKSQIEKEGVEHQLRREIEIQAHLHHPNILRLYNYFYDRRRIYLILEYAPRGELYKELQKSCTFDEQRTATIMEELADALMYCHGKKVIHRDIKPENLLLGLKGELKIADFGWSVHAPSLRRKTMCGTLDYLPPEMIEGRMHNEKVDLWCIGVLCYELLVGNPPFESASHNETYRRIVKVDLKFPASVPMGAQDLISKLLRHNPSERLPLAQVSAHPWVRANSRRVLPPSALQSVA
T1 sequence (Q9NQS7 826-918 partner): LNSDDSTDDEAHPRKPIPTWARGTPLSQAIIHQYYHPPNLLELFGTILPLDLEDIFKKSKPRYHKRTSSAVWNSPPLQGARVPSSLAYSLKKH

## CCOc1cc(OC[C@H]2CCCN2C)c2c(Nc3cnn(CC(=O)Nc4cccc(F)c4F)c3)ncnc2c1 [Compound 1, N-(2,3-difluorophenyl)-2-{4-[(7-ethoxy-5-{[(2R)-1-methylpyrrolidin-2-yl]methoxy}quinazolin-4-yl)amino]-1H-pyrazol-1-yl}acetamide]
[1]
  IC50: 17 nM
[2]
  IC50: 5.5 nM
Aurora B-INCENP enzyme
  IC50: 0.5 nM

## CCOc1cc(OC[C@H]2CCCN2)c2c(Nc3cnn(CC(=O)Nc4cccc(F)c4F)c3)ncnc2c1 [Compound 2, N-(2,3-difluorophenyl)-2-[4-({7-ethoxy-5-[(2R)-pyrrolidin-2-ylmethoxy]quinazolin-4-yl}amino)-1H-pyrazol-1-yl]acetamide]
[1]
  IC50: 20 nM
[2]
  IC50: 2 nM
Aurora B-INCENP enzyme
  IC50: 0.5 nM

## CCOc1cc(OC[C@H]2COCCN2)c2c(Nc3cnn(CC(=O)Nc4cccc(F)c4F)c3)ncnc2c1 [Compound 3, N-(2,3-difluorophenyl)-2-[4-({7-ethoxy-5-[(3R)-morpholin-3-ylmethoxy]quinazolin-4-yl}amino)-1H-pyrazol-1-yl]acetamide]
[1]
  IC50: 4 nM
[2]
  IC50: 2 nM
Aurora B-INCENP enzyme
  IC50: 0.1 nM
